Patent US10927118B2, “Inhibitors of influenza virus replication and uses thereof” (SUNSHINE LAKE PHARMA CO., LTD., priority 2017, dated 2021)

How the values were obtained:
[1] = system: virus H1N1 A/Weiss/43; assay: microbe, parasite or virus in culture; assay type: cell-based; settings: 120 h; inhibition of CPE of influenza virus A/Weiss/43(H1N1) in MDCK cells, 5 days, CCK-8
[2] = in vivo; settings: SD, rat
Method: Pharmacokinetic characteristics of the compounds of the invention in SD rats were evaluated. The compounds disclosed herein were administered in form of a saline solution containing 5% DMSO, 5% Kolliphor HS 15 and 90% Saline. For intravenous administration (iv), the animals were administered with a dose of 1 mg/kg, and blood samples (0.3 mL) were collected at the time points of 0.083, 0.25, 0.5, 1.0, 2.0, 5.0, 7.0 and 24 h after drug administration, then each blood sample was processed to separate plasma by centrifugation at 3000 rpm or 4000 rpm for 10 minutes. For oral administration (po), the animals were administered with a dose of 5 mg/kg, and blood samples (0.3 mL) were collected at the time points of 0.25, 0.5, 1.0, 2.0, 5.0, 7.0 and 24 h after drug administration, then each blood sample was processed to separate plasma by centrifugation at 3000 rpm or 4000 rpm for 10 minutes. Plasma samples were collected and stored at −20° C. or −70° C. until LC/MS/MS analysis.

Structure (SMILES) | EC50 [1] [nM] | also measured
O=C(O)C1C2CCC(CC2)C1Nc1cc(C#Cc2ccccc2)nc(-c2c[nH]c3ncncc23)n1 (racemic) [Example 12, (+/−)-trans-3-((6-(phenylethynyl)-2-(7H-pyrrolo[2,3-d]pyrimidin-5-yl)pyrimidin-4-yl)amino)bicyclo[2.2.2]octane-2-carboxylic acid] | 7.24 | –
O=C(O)C1C2CCC(CC2)C1Nc1nc(-c2c[nH]c3ncncc23)nc2sccc12 (racemic) [Example 20, (+/−)-trans-3-((2-(7H-pyrrolo[2,3-d]pyrimidin-5-yl)thieno[2,3-d]pyrimidin-4-yl)amino)bicyclo[2.2.2]octane-2-carboxylic acid] | 19.2 | –
O=C(O)C1C2CCC(CC2)C1Nc1nc(-c2c[nH]c3ncncc23)nc2ccccc12 (racemic) [Example 18, (+/−)-trans-3-((2-(7H-pyrrolo[2,3-d]pyrimidin-5-yl)quinazolin-4-yl)amino) bicyclo[2.2.2]octane-2-carboxylic acid] | 17.5 | –
O=C(O)C1C2CCC(CC2)C1Nc1cc(-c2ccoc2)nc(-c2c[nH]c3ncncc23)n1 (racemic) [Example 9, (+/−)-trans-3-((6-(furan-3-yl)-2-(7H-pyrrolo[2,3-d]pyrimidin-5-yl)pyrimidin-4-yl)amino)bicyclo[2.2.2]octane-2-carboxylic acid] | 9.57 | –
Cn1ccc2c(NC3C4CCC(CC4)C3C(=O)O)nc(-c3c[nH]c4ncncc34)nc21 (racemic) [Example 3, (+/−)-trans-3-((7-methyl-7H,7′H-[2,5′-bipyrrolo[2,3-d]pyrimidin]-4-yl)amino)bicyclo[2.2.2]octane-2-carboxylic acid] | 9.41 | AUC(0-inf) ([2]; iv, 1 mg/kg): 4320 ng·h/mL; AUC(0-t) ([2]; iv, 1 mg/kg): 4280 ng·h/mL; clearance ([2]; iv, 1 mg/kg): 9.8 mL/min/kg; AUC(0-inf) ([2]; po, 5 mg/kg): 15700 ng·h/mL; AUC(0-t) ([2]; po, 5 mg/kg): 15600 ng·h/mL
Cn1cc(-c2cc(NC3C4CCC(CC4)C3C(=O)O)nc(-c3c[nH]c4ncncc34)n2)cn1 (racemic) [Example 14, (+/−)-trans-3-((6-(1-methyl-1H-pyrazol-4-yl)-2-(7H-pyrrolo[2,3-d]pyrimidin-5-yl)pyrimidin-4-yl)amino)bicyclo[2.2.2]octane-2-carboxylic acid] | 6.32 | –
O=C(O)C1C2CCC(CC2)C1Nc1cc(-c2cc3ccccc3o2)nc(-c2c[nH]c3ncncc23)n1 (racemic) [Example 11, (+/−)-trans-3-((6-(benzofuran-2-yl)-2-(7H-pyrrolo[2,3-d]pyrimidin-5-yl)pyrimidin-4-yl)amino)bicyclo[2.2.2]octane-2-carboxylic acid] | 14.4 | –
O=C(O)C1C2CCC(CC2)C1Nc1cc(-c2ccco2)nc(-c2c[nH]c3ncncc23)n1 (racemic) [Example 2, (+/−)-trans-3-((6-(furan-2-yl)-2-(7H-pyrrolo[2,3-d]pyrimidin-5-yl)pyrimidin-4-yl)amino)bicyclo[2.2.2]octane-2-carboxylic acid] | 5.19 | AUC(0-inf) ([2]; iv, 1 mg/kg): 4020 ng·h/mL; AUC(0-t) ([2]; iv, 1 mg/kg): 3190 ng·h/mL; clearance ([2]; iv, 1 mg/kg): 10.7 mL/min/kg; AUC(0-inf) ([2]; po, 5 mg/kg): 12900 ng·h/mL; AUC(0-t) ([2]; po, 5 mg/kg): 12700 ng·h/mL
O=C(O)C1C2CCC(CC2)C1Nc1nc(-c2c[nH]c3ncncc23)nc(-c2ccco2)c1F (racemic) [Example 7, (+/−)-trans-3-((5-fluoro-6-(furan-2-yl)-2-(7H-pyrrolo[2,3-d]pyrimidin-5-yl)pyrimidin-4-yl)amino)bicyclo[2.2.2]octane-2-carboxylic acid] | 4.02 | –
O=C(O)C1C2CCC(CC2)C1Nc1nc(-c2c[nH]c3ncncc23)ncc1F (stereo not shown) [Control compound A, reference compound] | > 100000 | –
CC(C)n1ccc2c(NC3C4CCC(CC4)C3C(=O)O)nc(-c3c[nH]c4ncncc34)nc21 (racemic) [Example 4, (+/−)-trans-3-((7-isopropyl-7H,7′H-[2,5′-bipyrrolo[2,3-d]pyrimidin]-4-yl)amino) bicyclo[2.2.2]octane-2-carboxylic acid] | 6.56 | –
O=C(O)C1C2CCC(CC2)C1Nc1nc(-c2c[nH]c3ncncc23)nc(-c2ccccc2)c1F (racemic) [Example 13, (+/−)-trans-3-((5-fluoro-6-phenyl-2-(7H-pyrrolo[2,3-d]pyrimidin-5-yl)pyrimidin-4-yl)amino)bicyclo[2.2.2]octane-2-carboxylic acid] | 8.68 | –
